From BigSolDB 2.1

CN(Cc1ccccc1)CN1C(=O)C(=NNC(=O)c2ccccc2OCc2ccccc2)c2ccccc21
Settings	solubility (mole fraction)
in PEG-400, 298.15 K	0.007
in PEG-400, 303.15 K	0.00778
in PEG-400, 308.15 K	0.00883
in PEG-400, 313.15 K	0.00988
in PEG-400, 318.15 K	0.0113

in water
Settings	solubility (mole fraction)
298.15 K	1.07e-06
303.15 K	1.48e-06
308.15 K	1.89e-06
313.15 K	2.39e-06
318.15 K	2.97e-06
